Test results: EP0337503B1, “Fumigation methods and compositions” (Entek Corporation, priority 1983, dated 1984)

Key:
[1] = Effect of pH on production of CS2 from thiocarbonates in citrate-phosphate buffers, gas chromatography of air; type: physicochemical
Method: Pure carbon disulfide is also injected, for comparison. A syringe is used to periodically sample air in the bottle, and the air is analyzed by gas chromatography.

Verticillium dahliae = assay: Fungicidal test, radial growth of mycelia colonies; type: cell-based
Method: (§1) Thiocarbonate solutions are used in a test of their fungicidal properties. Cultures of four plant pathogenic fungi are grown upon potato dextrose agar at room temperature, in diffuse natural lighting. After one week, square blocks having 2 millimeter sides are cut from the edges of actively growing mycelia spots on the agar.
(§2) The blocks are immersed in sterile deionized water, as a control, or in dilutions of thiocarbonate solutions using the sterile water, in a closed container. Subsequently, the blocks are removed and placed upon agar in clean plates, and mycelia are allowed to grow for one week.
(§3) Radial growth of mycelia colonies is measured for each of the six to eight replicate plates used for a particular fungus, and average colony radius is calculated. Percent control is defined by the following equation: Percent control =[1-((Average radius of treated plates)/(Average radius of control plates))]x100 [formula]
(§4) Concentrations given for solutions used to treat the agar blocks are expressed in grams of thiocarbonate solution per liter of diluted solution.

Fusarium oxysporum = assay: Fungicidal test, radial growth of mycelia colonies; type: cell-based; conditions: listed as CaCS4 (2.8%CS2)
Method: as §1, §2, §3, §4

Sclerotium rolfsii = assay: Fungicidal test, radial growth of mycelia colonies; type: cell-based
Method: as §1, §2, §3, §4

Phytophthora cinnamomi = assay: Fungicidal test, radial growth of mycelia colonies; type: cell-based
Method: as §1, §2, §3, §4

[2] = Storage stability: loss of ability of aqueous solutions to generate carbon disulfide upon contact with strong acid; type: physicochemical; conditions: aqueous solutions of tetrathiocarbonate salts, about 14 to about 16 percent by weight carbon disulfide equivalent, air-tight glass containers, 49° C.; listed as Ca^++
Method: Various tetrathiocarbonate salts are evaluated for storage stability by measuring the loss of the ability of aqueous solutions thereof to generate carbon disulfide upon contact with strong acid. Aqueous solutions of the salts listed in the following table, having an equivalent of from about 14 to about 16 percent by weight carbon disulfide, are stored in air-tight glass containers at a temperature of 49° C.

nematode larvae = assay: In-vitro nematocidal test: larvae treated in aqueous suspension, injected into root zone of tomato plants, gall count; type: in vivo, Meloidogyne incognita; conditions: larvae treated 1 hour; for Gall Count, replicate 2: control 88; for Gall Count, Mean: control 89; for Gall Count, replicate 1: control 90
Method: The procedure of Example 2 is repeated except that potassium tetrathiocarbonate is substituted for stabilized ammonium tetrathiocarbonate and an in-vitro nematocidal test is used. In the in-vitro test, the nematode larvae are treated in aqueous suspension for 1 hour at the concentrations of fumigant given in the following table, washed twice with water, and injected into the active root zone of the tomato plants. After thirty days the roots are harvested, examined for galling, giving the results summarized below.

[3] = Decomposition in sandy loam soil at different moisture, CS2 in air space by gas chromatography; type: physicochemical; conditions: hours to maximum CS2 concentration in the air space
Method: A sandy loam soil is placed in 1-liter glass bottles, fitted with stoppers having fluorocarbon liners and silicone rubber septa, to give a soil depth of about 4 cm. […] Thiocarbonate solution or carbon disulfide is injected near the bottom of the soil layer, the bottles are promptly sealed, and the air space in the bottles is sampled at intervals with a syringe, for gas chromatographic analysis of CS2. Results are summarized below, wherein degradation time is the number of hours required to achieve the maximum CS2 concentration in the air space.

[4] = system: root-knot nematode larvae (Meloidogyne incognita); assay: Greenhouse nematocide experiment with tomato plants, soil drench, root gall count; type: in vivo; conditions: 30 days; for Gall Counts, replicate 3: control 1; for Gall Counts, Mean: control 4.0; for Gall Counts, replicate 2: control 7; for Gall Counts, replicate 1: control 4
Method: In the experiment, thirty containers are used, each containing about 500 grams of sterilized sandy loam soil. Each container contains one tomato plant. Each container is injected with four 5-milliliter portions of extract from nematode-infested pepper roots, one inch below the soil surface, producing an initial population of 2000 root-knot nematode larvae (Meloidogyne incognita) per container.
Ten treatments are replicated three times, each treatment consisting of drenching the soil with a solution containing the fumigant to provide the dosage of CS2 given in the following table. The solutions are diluted with sufficient water to saturate the soil. The treatments include calcium tetrathiocarbonate, stabilized ammonium tetrathiocarbonate, and carbon disulfide at three levels, plus an untreated control. After drenching, each container is allowed to stand at ambient conditions. The plants are harvested after 30 days of growth, and soil is removed from the roots by a gentle washing with water. By use of a magnifying glass, the number of root galls is counted on each plant.
Results are summarized below, wherein the "Application" represents milligrams of treatment per kilogram of soil, calculated as the thiocarbonate salt and the equivalent carbon disulfide. Gall counts are mean values from the three replicates.

[5] = 1 g/l, listed as CaCS4 (2.8%CS2)
[6] = 10 g/l, listed as CaCS4 (2.8%CS2)
[7] = 50 ppm salt (6.3 ppm CS2 equiv. CaCS4; 6.5 ppm K2CS4)
[8] = 100 ppm salt (12.5 ppm CS2 equiv. CaCS4; 13 ppm K2CS4)
[9] = 150 ppm salt (18.8 ppm CS2 equiv. CaCS4; 19.5 ppm K2CS4)
[10] = highest application: 638/89 ppm ((NH4)2CS4·(NH4)2S), 730/91 (CaCS4), 97 ppm (CS2)
[11] = lowest application: 213/30 ppm ((NH4)2CS4·(NH4)2S), 245/31 (CaCS4), 32 ppm (CS2)
[12] = middle application: 425/60 ppm ((NH4)2CS4·(NH4)2S), 490/61 (CaCS4), 65 ppm (CS2)

With `S=C(S)SS` [CaCS4, calcium tetrathiocarbonate] the “Half-life (minutes) for production of carbon disulfide” value (from here on “Half-life (minutes) for production”) ([1]; pH 5.2, 125 milligrams per liter of thiocarbonate ion) was 1 min, the “Half-life (minutes) for production” value ([1]; pH 6.0, 125 milligrams per liter of thiocarbonate ion) was 1.8 min and the “Half-life (minutes) for production” value ([1]; pH 7.0, 125 milligrams per liter of thiocarbonate ion) was 2.7 min. For the same compound, the “Half-life (minutes) for production” value ([1]; pH 8.0, 125 milligrams per liter of thiocarbonate ion, CaCS4 values above pH 7 called unreliable) was 8.0 min, the “Half-life (minutes) for production” value ([1]; pH 9.0, 125 milligrams per liter of thiocarbonate ion, CaCS4 values above pH 7 called unreliable) was 11.3 min and the “Percent Control Verticillium dahliae” value (Verticillium dahliae; [5]) was 13%. The “Percent Control Verticillium dahliae” value (Verticillium dahliae; [6]) was 22%, the “Percent Control Verticillium dahliae” value (Verticillium dahliae; 100 g/l) was 100% and the “Percent Control Fusarium oxysporum” value (Fusarium oxysporum; 1 g/l) was 3%. For the same compound, the “Percent Control Fusarium oxysporum” value (Fusarium oxysporum; 10 g/l) was 18%, the “Percent Control Fusarium oxysporum” value (Fusarium oxysporum; 100 g/l thiocarbonate solution per liter of diluted solution) was 100% and the “Percent Control Sclerotium rolfsii” value (Sclerotium rolfsii; [5]) was 46%. For the same compound, the “Percent Control Sclerotium rolfsii” value (Sclerotium rolfsii; [6]) was 62%, the “Percent Control Sclerotium rolfsii” value (Sclerotium rolfsii; 100 g/l) was 100% and the “Percent Control Phytophthora cinnamomi” value (Phytophthora cinnamomi; [5]) was 56%. The “Percent Control Phytophthora cinnamomi” value (Phytophthora cinnamomi; [6]) was 56%, the “Percent Control Phytophthora cinnamomi” value (Phytophthora cinnamomi; 100 g/l) was 100% and the “Half-life (months)” value [2] was 5.0 months. For the same compound, the “Gall Count, replicate 2” value (nematode larvae; [7]) was 149, the “Gall Count, Mean” value (nematode larvae; [7]) was 167 and the “Gall Count, replicate 1” value (nematode larvae; [7]) was 185. The “Gall Count, replicate 2” value (nematode larvae; [8]) was 184, the “Gall Count, Mean” value (nematode larvae; [8]) was 158 and the “Gall Count, replicate 1” value (nematode larvae; [8]) was 132. For the same compound, the “Gall Count, replicate 2” value (nematode larvae; [9]) was 66, the “Gall Count, Mean” value (nematode larvae; [9]) was 49 and the “Gall Count, replicate 1” value (nematode larvae; [9]) was 32. The “Degradation Time” value ([3]; Soil Moisture 0 % of Saturation) was 4 h, the “Degradation Time” value ([3]; Soil Moisture 50 % of Saturation) was 5 h and the “Degradation Time” value ([3]; Soil Moisture 100 % of Saturation) was 48 h. The “Gall Counts, replicate 3” value [4, 10] was 9, the “Gall Counts, Mean” value [4, 10] was 7.0 and the “Gall Counts, replicate 2” value [4, 10] was 9. The “Gall Counts, replicate 1” value ([4]; highest application: 638 ppm salt/89 ppm Eq. CS2 ((NH4)2CS4·(NH4)2S), 730/91 (CaCS4), 97 ppm (CS2)) was 3, the “Gall Counts, replicate 3” value [4, 11] was 23 and the “Gall Counts, Mean” value [4, 11] was 15.7. The “Gall Counts, replicate 2” value [4, 11] was 8, the “Gall Counts, replicate 1” value ([4]; lowest application: 213 ppm salt/30 ppm Eq. CS2 ((NH4)2CS4·(NH4)2S), 245/31 (CaCS4), 32 ppm (CS2)) was 16 and the “Gall Counts, replicate 3” value [4, 12] was 7. For the same compound, the “Gall Counts, Mean” value [4, 12] was 7.3, the “Gall Counts, replicate 2” value [4, 12] was 4 and the “Gall Counts, replicate 1” value ([4]; middle application: 425 ppm salt/60 ppm Eq. CS2 ((NH4)2CS4·(NH4)2S), 490/61 (CaCS4), 65 ppm (CS2)) was 11.
